Test results: article PMC11274521 (Cells, 2024)
Ends that are not written are not given here. Peptide text beside a SMILES is read from it. * marks the point of attachment. Biotin = O=C1N[C@H]2[C@H](CS[C@H]2CCCCC(=O)*)N1; Ahx = NCCCCCC(=O)O

Legend:
[1] = tested on: cells
[2] = mouse, in vivo
[3] = tested on: albumin (HSA, BSA, FBS); assay: Biotin pulldown of albumin; type: binding, human, bovine; conditions: 1 mM biotinylated peptide, 0.03 mM HSA, BSA or FBS, 2 h 4 °C, streptavidin resin
Protocol: For immunoprecipitation (IP), 300 µg of lysate was mixed with 5 µg of human anti-PD-1 (#AF1086, R&D) or mouse anti-PD-L1 (#PA5-20343, Invitrogen-Thermo Fisher Scientific) at 4 °C for 2 h followed by 30 min incubation with 20 µL of Pierce™ Protein A/G Magnetic Beads (ThermoFisher Scientific; catalog #88802) at room temperature followed by Western blot to detect the interacted proteins. In the biotin pulldown procedure, 1 mM biotinylated peptides were incubated with 0.03 mM of albumin (BSA, HSA, the equivalent amount FBS) for 2 h at 4 °C followed by incubating with 50 µL Streptavidin resin (Genescript, Piscataway, NJ, USA) for 1 hr at room temperature, followed by SDS-PAGE to detect the bound albumin.

[4] = physchem; conditions: aqueous buffer
[5] = target: T1, human serum albumin (human, UniProt P02768 25-609); assay: pull-down; 1 mM biotinylated peptide with 0.03 mM albumin (HSA or BSA) for 2 h at 4 °C, then Streptavidin resin for 1 h at room temperature; bound albumin detected by SDS-PAGE; conditions: both partners purified
T1 construct: human serum albumin (HSA); also called HSA

[6] = target: T2, bovine serum albumin (bovine, UniProt P02769 25-607); assay: as above; conditions: both partners purified
T2 construct: bovine serum albumin, used as BSA and as the albumin in an equivalent amount of FBS; also called BSA; albumin of fetal bovine serum (FBS); source: also as the albumin in fetal bovine serum (FBS)
T2 sequence (P02769 25-607): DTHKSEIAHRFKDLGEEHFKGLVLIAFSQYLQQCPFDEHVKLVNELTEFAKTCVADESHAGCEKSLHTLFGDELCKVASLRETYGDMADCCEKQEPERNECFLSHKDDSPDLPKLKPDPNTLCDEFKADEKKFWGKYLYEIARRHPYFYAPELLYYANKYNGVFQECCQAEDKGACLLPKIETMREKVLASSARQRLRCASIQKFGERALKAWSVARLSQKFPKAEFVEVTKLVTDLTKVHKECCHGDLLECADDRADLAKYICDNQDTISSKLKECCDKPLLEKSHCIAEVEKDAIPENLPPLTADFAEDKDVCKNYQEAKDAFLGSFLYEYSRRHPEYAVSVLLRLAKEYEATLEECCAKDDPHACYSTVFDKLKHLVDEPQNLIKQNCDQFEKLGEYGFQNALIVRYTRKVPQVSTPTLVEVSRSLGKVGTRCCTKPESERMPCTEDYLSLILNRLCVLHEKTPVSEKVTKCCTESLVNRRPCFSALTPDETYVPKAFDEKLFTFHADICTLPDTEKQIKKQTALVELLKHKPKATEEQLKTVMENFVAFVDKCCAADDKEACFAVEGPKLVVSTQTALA

REEKLFNVTSNLRINT-NH2 [L7N]
Toxicity to cells [1]: no significant toxicity | Immune reactions of mice [2]: adverse immune reactions

CC[C@H](C)[C@H](NC(=O)[C@H](CCCNC(=N)N)NC(=O)[C@H](CC(C)C)NC(=O)[C@H](CC(N)=O)NC(=O)[C@H](CO)NC(=O)[C@@H](NC(=O)[C@@H](NC(=O)[C@H](CC(N)=O)NC(=O)[C@H](Cc1ccccc1)NC(=O)[C@H](CC(C)C)NC(=O)[C@H](CCCCN)NC(=O)[C@H](CCC(=O)O)NC(=O)[C@H](CCC(=O)O)NC(=O)[C@H](CCCNC(=N)N)NC(=O)CCCCCNC(=O)[C@H](CCC(=O)O)NC(=O)[C@H](Cc1ccc(O)cc1)NC(=O)[C@H](CCC(=O)O)NC(=O)[C@H](CCCCN)NC(=O)[C@H](CCC(=O)O)NC(=O)[C@H](Cc1ccc(O)cc1)NC(=O)[C@H](CCC(=O)O)NC(=O)CCCCCNC(=O)CCCC[C@@H]1SC[C@@H]2NC(=O)N[C@@H]21)C(C)C)[C@@H](C)O)C(=O)N[C@@H](CC(N)=O)C(=O)N[C@H](C(N)=O)[C@@H](C)O [Biotin-EYEKEYE-L7N]
Binding to albumin (pulldown, SDS-PAGE) [3]: no binding

CC[C@H](C)[C@H](NC(=O)[C@H](CCCNC(=N)N)NC(=O)[C@H](CC(C)C)NC(=O)[C@H](CC(N)=O)NC(=O)[C@H](CO)NC(=O)[C@@H](NC(=O)[C@@H](NC(=O)[C@H](CC(N)=O)NC(=O)[C@H](Cc1ccccc1)NC(=O)[C@H](CC(C)C)NC(=O)[C@H](CCCCN)NC(=O)[C@H](CCC(=O)O)NC(=O)[C@H](CCC(=O)O)NC(=O)[C@H](CCCNC(=N)N)NC(=O)CCCCCNC(=O)CCCC[C@@H]1SC[C@@H]2NC(=O)N[C@@H]21)C(C)C)[C@@H](C)O)C(=O)N[C@@H](CC(N)=O)C(=O)N[C@H](C(N)=O)[C@@H](C)O [Biotin-L7N] ({Biotin-Ahx}-REEKLFNVTSNLRINT-NH2)
Binding to albumin (pulldown, SDS-PAGE) [3]: no binding

REEKLFNVTSTLRINT-NH2 [L7]
solubility [4]: < 10000 µg/mL

B1: Biotin-PA-scramble (peptide)
peptide: EYEKEYETKLREIFVNLRTNSEN
modifications: biotin-ahx at the N-terminus; palmitic acid on the Lys side chain of EYEKEYE; ahx (6-aminohexanoic acid) between EYEKEYE and the peptide
notes: peptide tag that carries palmitic acid on its Lys; also called biotin–PA–scrambled peptide; PA-coupled scramble peptide; source: synthetic peptide (Fmoc chemistry); not shown: biotin, N-terminal, kept
binding result [5]: binds | binding result [6]: binds
